Active and inactive are the calls of the source. No cut-off for these calls is given here.
Legend:
Mus musculus [1] = test: In vivo inhibition of dopaminergic D2 receptor in Swiss albino Mus musculus (mouse) at 10 mg/kg, ip relative to vehicle-treated control; format: functional; conditions: route intraperitoneal
Mus musculus [2] = test: Antagonist activity at mesolimbic dopaminergic D2 receptor in Swiss albino Mus musculus (mouse) assessed as inhibition of apomorphine-induced cage climbing behavior at 10 mg/kg, ip administered 1 hr prior to apomorphine challenge measured after 30 min relative to vehicle-treated control; format: functional; conditions: route intraperitoneal
Mus musculus [3] = test: In vivo inhibition of 5-HT2A receptor in Swiss albino Mus musculus (mouse) at 10 mg/kg, ip relative to vehicle-treated control; format: functional; conditions: route intraperitoneal
[4] = biological target: D(2) dopamine receptor (Rattus norvegicus) (UniProt P61169); test: Displacement of [3H]spiperone from D2 receptor in Rattus norvegicus (rat) straitum membrane homogenates at 100 uM after 60 min by liquid scintillation counting analysis
Chain of D(2) dopamine receptor (Rattus norvegicus) (P61169 whole entry): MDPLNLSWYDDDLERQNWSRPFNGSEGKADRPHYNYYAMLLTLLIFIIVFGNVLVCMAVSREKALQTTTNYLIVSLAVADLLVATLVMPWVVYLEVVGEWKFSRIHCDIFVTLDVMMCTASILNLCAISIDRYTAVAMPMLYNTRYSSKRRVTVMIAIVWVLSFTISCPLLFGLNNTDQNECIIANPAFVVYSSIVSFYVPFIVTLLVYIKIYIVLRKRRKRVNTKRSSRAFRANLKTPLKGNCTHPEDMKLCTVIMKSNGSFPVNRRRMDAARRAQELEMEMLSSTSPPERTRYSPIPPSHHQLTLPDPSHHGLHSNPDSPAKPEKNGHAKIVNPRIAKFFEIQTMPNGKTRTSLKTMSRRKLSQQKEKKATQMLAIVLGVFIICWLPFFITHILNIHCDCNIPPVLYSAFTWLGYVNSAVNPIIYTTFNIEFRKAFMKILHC

Mus musculus [5] = test: Selectivity ratio of inhibition of 5-HT2A receptor in Swiss albino Mus musculus (mouse) to inhibition of dopaminergic D2 receptor in Swiss albino Mus musculus (mouse) at 10 mg/kg, ip; format: functional; conditions: route intraperitoneal
Mus musculus [6] = test: Antagonist activity at mesolimbic dopaminergic D2 receptor in Swiss albino Mus musculus (mouse) assessed as inhibition of apomorphine-induced cage climbing behavior at 10 mg/kg, ip administered 1 hr prior to apomorphine challenge measured after 10 min relative to vehicle-treated control; format: functional; conditions: route intraperitoneal
Mus musculus [7] = test: Antagonist activity at central serotonergic 5-HT2A receptor in Swiss albino Mus musculus (mouse) assessed as inhibition of quipazine meleate-induced head twiches at 10 mg/kg, ip administered 1 hr prior to quipazine meleate challenge measured after 30 to 40 min relative to vehicle-treated control; format: functional; conditions: route intraperitoneal
[8] = biological target: 5-hydroxytryptamine receptor 2A (Rattus norvegicus) (UniProt P14842); test: Displacement of [3H]ketanserin from 5-HT2A receptor in Rattus norvegicus (rat) cortex membrane homogenates up to 1 uM after 90 min by liquid scintillation counting analysis
Chain of 5-hydroxytryptamine receptor 2A (Rattus norvegicus) (P14842 whole entry): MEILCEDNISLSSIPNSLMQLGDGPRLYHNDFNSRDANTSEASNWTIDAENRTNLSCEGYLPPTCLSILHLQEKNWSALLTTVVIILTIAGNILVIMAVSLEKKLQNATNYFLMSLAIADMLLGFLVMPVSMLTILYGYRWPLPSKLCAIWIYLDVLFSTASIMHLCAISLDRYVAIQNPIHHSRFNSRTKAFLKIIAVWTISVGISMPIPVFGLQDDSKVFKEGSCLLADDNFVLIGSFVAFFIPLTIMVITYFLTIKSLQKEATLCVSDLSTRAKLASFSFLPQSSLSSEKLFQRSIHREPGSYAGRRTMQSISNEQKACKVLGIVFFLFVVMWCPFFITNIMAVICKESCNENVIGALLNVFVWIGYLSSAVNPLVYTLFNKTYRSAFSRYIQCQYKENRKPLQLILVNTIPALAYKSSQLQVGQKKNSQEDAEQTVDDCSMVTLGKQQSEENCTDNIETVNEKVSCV

Mus musculus [9] = test: Antagonist activity at mesolimbic dopaminergic D2 receptor in Swiss albino Mus musculus (mouse) assessed as inhibition of apomorphine-induced cage climbing behavior at 10 mg/kg, ip administered 1 hr prior to apomorphine challenge measured after 20 min relative to vehicle-treated control; format: functional; conditions: route intraperitoneal
[10] = biological target: 5-hydroxytryptamine receptor 2A (Rattus norvegicus) (UniProt P14842); test: Displacement of [3H]ketanserin from 5-HT2A receptor in Rattus norvegicus (rat) cortex membrane homogenates at 10 uM after 90 min by liquid scintillation counting analysis
[11] = biological target: D(2) dopamine receptor (Rattus norvegicus) (UniProt P61169); test: Displacement of [3H]spiperone from dopaminergic D2 receptor in Rattus norvegicus (rat) straitum membrane homogenates up to 1 uM after 60 min by liquid scintillation counting analysis
Mus musculus [12] = test: Antagonist activity at nigrostriatal dopaminergic D2 receptor in Swiss albino Mus musculus (mouse) assessed as maximum average cataleptic time at 10 mg/kg, ip after 1 to 5 hr relative to vehicle-treated control; format: organism-based; parameters: dose 10 mg/kg, route intraperitoneal; conditions: in vivo
[13] = biological target: D(2) dopamine receptor (Rattus norvegicus) (UniProt P61169); test: Displacement of [3H]spiperone from D2 receptor in Rattus norvegicus (rat) straitum membrane homogenates at 10 uM after 60 min by liquid scintillation counting analysis

Row | SMILES | inhibition [4] [%] | inhibition [8] | inhibition [10] [%] | inhibition [11] | inhibition [13] | Imax (Mus musculus [1]) [%] | inhibition in vivo at 10 mg/kg (Mus musculus [2]) [%] | inhibition in vivo at 10 mg/kg (Mus musculus [3]) [%] | Selectivity ratio (Mus musculus [5]) | inhibition in vivo at 10 mg/kg (Mus musculus [6]) [%] | inhibition in vivo at 10 mg/kg (Mus musculus [7]) [%] | inhibition in vivo at 10 mg/kg (Mus musculus [9]) [%] | Time (Mus musculus [12]) [s]
1 | Oc1nc(-c2ccc(CCN3CCN(c4nc5ccccc5nc4Cl)CC3)cc2)cs1 | 0 | inactive | 0 | inactive | – | 60 | 50 | 58 | 0.9667 | 60 | 58 | 60 | 28.25
2 | Nc1nc(-c2ccc(CCN3CCN(c4cnc5ccccc5n4)CC3)cc2)cs1 | 26 | inactive | 51 | inactive | inactive | 75 | 65 | 15 | 0.2 | 60 | 15 | 75 | 9.21
3 | COc1nc2ccccc2nc1N1CCN(CCc2ccc(-c3nc(N)sc3C)cc2)CC1 | – | inactive | – | inactive | – | 80 | 65 | 60 | 0.75 | 65 | 60 | 80 | 10.78
4 | COc1nc2ccccc2nc1N1CCN(CCc2ccc(-c3csc(N)n3)cc2)CC1 | 24 | inactive | 49 | inactive | inactive | 65 | 65 | 12 | 0.1846 | 60 | 12 | 60 | 14.12
5 | Cc1sc(N)nc1-c1ccc(CCN2CCN(c3nc4ccccc4nc3Cl)CC2)cc1 | 0 | inactive | 0 | inactive | – | 80 | 65 | 86 | 1.075 | 80 | 86 | 80 | 23.5
6 | Cc1nc(-c2ccc(CCN3CCN(c4nc5ccccc5nc4Cl)CC3)cc2)cs1 | 0 | inactive | 30 | inactive | – | 80 | 75 | 62 | 0.775 | 80 | 62 | 65 | 3.25
7 | COc1nc2ccccc2nc1N1CCN(CCc2ccc(-c3nc(C)sc3C)cc2)CC1 | – | inactive | – | inactive | – | 85 | 65 | 65 | 0.7647 | 85 | 65 | 70 | 11.25
8 | COc1nc2ccccc2nc1N1CCN(CCc2ccc(-c3csc(O)n3)cc2)CC1 | 0 | inactive | 28 | inactive | – | 65 | 60 | 67 | 1.031 | 65 | 67 | 60 | 7.9
9 | CNc1nc(-c2ccc(CCN3CCN(c4nc5ccccc5nc4Cl)CC3)cc2)cs1 | 0 | inactive | 14 | inactive | – | 80 | 80 | 41 | 0.5125 | 60 | 41 | 80 | 3.96
10 | Cc1nc(-c2ccc(CCN3CCN(c4nc5ccccc5nc4Cl)CC3)cc2)c(C)s1 | 0 | inactive | 31 | inactive | – | 80 | 80 | 51 | 0.6375 | 60 | 51 | 60 | 9.25
11 | Nc1nc(-c2ccc(CCN3CCN(c4nc5ccccc5nc4Cl)CC3)cc2)cs1 | 0 | inactive | 4 | inactive | – | 70 | 70 | 79 | 1.129 | 65 | 79 | 60 | 18.24

The next lines start with results.

Row | inhibition [4] [%] | inhibition [8] | inhibition [10] [%] | inhibition [11] | inhibition [13] | SMILES | Imax (Mus musculus [1]) [%] | inhibition in vivo at 10 mg/kg (Mus musculus [2]) [%] | inhibition in vivo at 10 mg/kg (Mus musculus [3]) [%] | Selectivity ratio (Mus musculus [5]) | inhibition in vivo at 10 mg/kg (Mus musculus [6]) [%] | inhibition in vivo at 10 mg/kg (Mus musculus [7]) [%] | inhibition in vivo at 10 mg/kg (Mus musculus [9]) [%] | Time (Mus musculus [12]) [s]
12 | 0 | inactive | 58 | inactive | – | Cc1sc(N)nc1-c1ccc(CCN2CCN(c3cnc4ccccc4n3)CC2)cc1 | 95 | 60 | 31 | 0.3263 | 95 | 31 | 80 | 2.64
13 | 0 | inactive | 57 | inactive | – | CNc1nc(-c2ccc(CCN3CCN(c4cnc5ccccc5n4)CC3)cc2)cs1 | 60 | 60 | 36 | 0.6 | 25 | 36 | 50 | 9.32
14 | – | inactive | – | inactive | – | CNc1nc(-c2ccc(CCN3CCN(c4cnc5ccccc5n4)CC3)cc2)c(C)s1 | 75 | 65 | 55 | 0.7333 | 60 | 55 | 75 | 3.88
15 | – | inactive | – | inactive | – | CNc1nc(-c2ccc(CCN3CCN(c4nc5ccccc5nc4OC)CC3)cc2)c(C)s1 | 70 | 70 | 80 | 1.143 | 60 | 80 | 50 | 3.12
16 | 0 | inactive | 22 | inactive | – | Oc1nc(-c2ccc(CCN3CCN(c4cnc5ccccc5n4)CC3)cc2)cs1 | 65 | 65 | 80 | 1.231 | 60 | 80 | 65 | 3.19
17 | 0 | inactive | 31 | inactive | – | CNc1nc(-c2ccc(CCN3CCN(c4nc5ccccc5nc4Cl)CC3)cc2)c(C)s1 | 95 | 70 | 81 | 0.8526 | 95 | 81 | 95 | 8.12
18 | – | inactive | – | inactive | – | Cc1nc(-c2ccc(CCN3CCN(c4cnc5ccccc5n4)CC3)cc2)c(C)s1 | 70 | 70 | 32 | 0.4571 | 25 | 32 | 50 | 9.32

Source: ChEMBL document CHEMBL3044879, “Design, synthesis, and preliminary in vitro and in vivo pharmacological evaluation of 4-{4-[2-(4-(2-substitutedquinoxalin-3-yl)piperazin-1-yl)ethyl]phenyl}thiazoles as atypical antipsychotic agents” (Med Chem Res, 2013)
